# Assay results reported in patent publication CN102488699A, “芍药苷在制备防治肺纤维化药物中的应用” (China Pharmaceutical University, priority 2011, dated 2012).
# Experiments:
# [1] = system: pulmonary fibrosis mice [肺纤维化小鼠]; assay: Effect on survival rate of mice with bleomycin-induced pulmonary fibrosis; type: in vivo, mouse; conditions: intragastric, once daily from day 1, model group 50.0%; for survival rate: day 21 after bleomycin (5 mg/kg intratracheal)
# [2] = system: lung tissue of pulmonary fibrosis mice [肺纤维化小鼠肺组织]; assay: Effect on lung tissue lesions of pulmonary fibrosis mice, HE staining (Fig. 1); type: in vivo, mouse; conditions: intragastric, once daily, day 21, vs model group
# [3] = system: lung tissue of pulmonary fibrosis mice [肺纤维化小鼠肺组织]; assay: Effect on collagen deposition in lung tissue of pulmonary fibrosis mice, Masson staining (Fig. 2); type: in vivo, mouse; conditions: intragastric, once daily, day 21, vs model group
# [4] = system: bleomycin model mice [博来霉素模型小鼠]; assay: Effect on degree of alveolitis and pulmonary fibrosis in bleomycin model mice (Table 1); type: in vivo, mouse; conditions: intragastric, once daily, day 21, n=3
# [5] = system: hydroxyproline in lung tissue of pulmonary fibrosis mice [肺纤维化小鼠肺组织中羟脯氨酸]; assay: Effect on hydroxyproline content in lung tissue of pulmonary fibrosis mice (Fig. 3); type: in vivo, mouse
# [6] = system: smooth muscle actin (α-SMA) [平滑肌肌动蛋白(α-SMA)]; assay: Effect on α-SMA expression in lung tissue of pulmonary fibrosis mice, Western blot (Fig. 4); type: in vivo, mouse; conditions: intragastric, once daily, day 21
# [7] = system: TGF-β1 protein [TGF-β1蛋白]; assay: Effect on TGF-β1 protein expression in lung tissue of pulmonary fibrosis mice, Western blot (Fig. 5); type: in vivo, mouse; conditions: intragastric, once daily, day 21
# [8] = system: lipopolysaccharide-induced acute lung injury in mice [脂多糖引起的小鼠急性肺损伤]; conditions: intraperitoneal injection, Inflamm Res 2011,60(10):981-990; cited from earlier work
structure (smiles),measurement,setting,value
"CC(=O)OCC(=O)[C@@]1(O)CC[C@H]2[C@@H]3CCC4=CC(=O)C=C[C@]4(C)[C@H]3C(=O)C[C@@]21C [泼尼松, 醋酸泼尼松, reference compound]",survival rate (in words),"[1]; 6 mg/kg, day 21 after bleomycin",与模型组相近
same,"degree of alveolitis, HE staining",[2]; 6 mg/kg,肺泡炎程度明显减轻
same,"lung tissue lesions, HE staining",[2]; 6 mg/kg,"肺组织结构较完整清晰,少量炎性细胞浸润及成纤维细胞增生,病变程度较模型组轻"
same,"collagen deposition and pulmonary fibrosis, Masson staining",[3]; 6 mg/kg,"肺组织结构较完整清晰,肺泡间隔轻度增厚,胶原沉积减少,肺纤维化程度明显减轻"
same,alveolar inflammation,[4]; 6 mg/kg,抑制肺泡炎症
same,degree of pulmonary fibrosis,[4]; 6 mg/kg,显著减低肺纤维化程度
same,inhibition at 6 mg/kg,"[5]; Mus musculus, po, 504 h, read-out: inhibition rate of hydroxyproline content in lung tissue",31.2%
same,α-SMA content in lung tissue,[6]; 6 mg/kg,显著降低
same,TGF-β1 expression in lung tissue,[7]; 6 mg/kg,显著降低
"C[C@@]12C[C@@]3(O)O[C@@H](O1)[C@]1(COC(=O)c4ccccc4)[C@H]3C[C@@]12O[C@@H]1O[C@H](CO)[C@@H](O)[C@H](O)[C@H]1O [芍药苷, Paeoniflorin]",survival rate,[1]; 50 mg/kg,87.5%
same,survival rate,[1]; 100 mg/kg,75.0%
same,"degree of alveolitis, HE staining",[2]; 100 mg/kg,肺泡炎程度明显减轻
same,"lung tissue lesions, HE staining",[2]; 100 mg/kg,"肺组织结构较完整清晰,少量炎性细胞浸润及成纤维细胞增生,病变程度较模型组轻"
same,"collagen deposition and pulmonary fibrosis, Masson staining",[3]; 100 mg/kg,"肺组织结构较完整清晰,肺泡间隔轻度增厚,胶原沉积减少,肺纤维化程度明显减轻"
same,alveolar inflammation,[4]; 100 mg/kg,抑制肺泡炎症
same,degree of pulmonary fibrosis,[4]; 100 mg/kg,显著减低肺纤维化程度
same,inhibition of collagen synthesis (in words),"[5]; 50, 100 mg/kg, intragastric, once daily, day 21",剂量依赖性抑制胶原的合成
same,inhibition at 50 mg/kg,"[5]; Mus musculus, po, 504 h, 50 mg/kg, intragastric, once daily, day 21, read-out: inhibition rate of hydroxyproline content in lung tissue",20.6%
same,inhibition at 100 mg/kg,"[5]; Mus musculus, po, 504 h, 100 mg/kg, intragastric, once daily, day 21, read-out: inhibition rate of hydroxyproline content in lung tissue",31.4%
same,α-SMA content in lung tissue,[6]; 100 mg/kg,显著降低
same,TGF-β1 expression in lung tissue,[7]; 100 mg/kg,显著降低
same,protective effect on acute lung injury,[8],具有明显的保护作用
